Source: US20230386662A1, “RAPID AND DIRECT IDENTIFICATION AND DETERMINATION OF URINE BACTERIAL SUSCEPTIBILITY TO ANTIBIOTICS” (B. G. NEGEV TECHNOLOGIES AND APPLICATIONS LTD., AT …, priority 2020, published 2023)

Assays:
Format in all cases: cell-based
E. coli isolates = experiment: Susceptibility of E. coli urine isolates to antibiotics by the classical method VITEK2; design: key to Bacterial susceptibility category label: sensitive (S); resistant (R); conditions: for R (number of isolates resistant to the antibiotic) / S (number of isolates sensitive to the antibiotic): E. coli isolates from urine of UTI patients, 567 isolates studied
Excerpt: (§1) The present inventors studied 1005 different bacterial isolates derived directly from urine samples of UTIs patients, as follows:
(§2) These isolates were identified at a species level as well as their known susceptibility to most common used antibiotics, using the classical methods MALDI-TOF and VITEK2, respectively.
The samples where then processed for spectrometric measurements, by purifying the infecting bacteria directly from the urine as described herein above. A subset consisting of ten E. coli isolates was randomly selected, as detailed in table 1.

[1] = test system: Klebsiella pneumonia isolates; experiment: Susceptibility of Klebsiella pneumonia urine isolates to antibiotics by the classical method VITEK2; conditions: Klebsiella pneumonia isolates from urine of UTI patients, 220 isolates studied
Excerpt: as §1, §2
FIGS. 7A-7B present the average second derivative IR spectra of Klebsiella pneumonia, in the 900-1800 cm^−1 region grouped as sensitive of resistant to: Amoxicillin (panel a), Ceftazidime (panel c), Ceftriaxone (panel e) and Cefuroxime (panel g). The ROC curves of the classification of these antibiotics are respectively presented in panels (b), (d), (f) and (h). […] The performances of the RF classifier for the classification between Klebsiella pneumonia isolates sensitive and resistant to the tested antibiotics are summarized in Table 4 similar to E. coli (Table 3).

[2] = test system: Pseudomonas aeruginosa isolates; experiment: Susceptibility of Pseudomonas aeruginosa urine isolates to antibiotics by the classical method VITEK2; conditions: Pseudomonas aeruginosa isolates from urine of UTI patients, 121 isolates studied
Excerpt: as §1
These isolates were identified at a species level as well as their known susceptibility to most common used antibiotics, using the classical methods MALDI-TOF and VITEK2, respectively. […]

Row | Compound | R (number of isolates resistant to the antibiotic) (E. coli isolates) | S (number of isolates sensitive to the antibiotic) (E. coli isolates) | R (number of isolates resistant to the antibiotic) [1] | S (number of isolates sensitive to the antibiotic) [1] | Bacterial susceptibility category label (E. coli isolates; E. coli isolate 306358) | Bacterial susceptibility category label (E. coli isolates; E. coli isolate 306365) | Bacterial susceptibility category label (E. coli isolates; E. coli isolate 306366) | Bacterial susceptibility category label (E. coli isolates; E. coli isolate 306382) | Bacterial susceptibility category label (E. coli isolates; E. coli isolate 307201) | Bacterial susceptibility category label (E. coli isolates; E. coli isolate 307212) | Bacterial susceptibility category label (E. coli isolates; E. coli isolate 307234) | Bacterial susceptibility category label (E. coli isolates; E. coli isolate 307368) | Bacterial susceptibility category label (E. coli isolates; E. coli isolate 307395) | Bacterial susceptibility category label (E. coli isolates; E. coli isolate 307402) | R (number of isolates resistant to the antibiotic) [2] | S (number of isolates sensitive to the antibiotic) [2]
1 | CC1(C)S[C@@H]2[C@H](NC(=O)[C@H](N)c3ccc(O)cc3)C(=O)N2[C@H]1C(=O)O [Amoxicillin] | 170 | 397 | 61 | 159 | – | – | – | – | – | – | – | – | – | – | – | –
2 | CC1(C)S[C@@H]2[C@H](NC(=O)[C@H](N)c3ccccc3)C(=O)N2[C@H]1C(=O)O [Ampicillin] | 384 | 181 | – | – | S | R | R | S | R | S | R | S | R | R | – | –
3 | CC(C)(O/N=C(\C(=O)N[C@@H]1C(=O)N2C(C(=O)[O-])=C(C[n+]3ccccc3)CS[C@H]12)c1csc(N)n1)C(=O)O [Ceftazidime] | 159 | 408 | 91 | 129 | – | – | – | – | – | – | – | – | – | – | 19 | 78
4 | CO/N=C(\C(=O)N[C@@H]1C(=O)N2C(C(=O)O)=C(CSc3nc(=O)c(=O)[nH]n3C)CS[C@H]12)c1csc(N)n1 [Ceftriaxone] | 160 | 407 | 87 | 133 | S | S | R | S | S | S | S | S | S | S | – | –
5 | CO/N=C(\C(=O)N[C@@H]1C(=O)N2C(C(=O)OC(C)OC(C)=O)=C(COC(N)=O)CS[C@H]12)c1ccco1 (stereo partly drawn) [Cefuroxime-Axetil] | 190 | 351 | 95 | 112 | – | – | – | – | – | – | – | – | – | – | – | –
6 | CO/N=C(\C(=O)N[C@@H]1C(=O)N2C(C(=O)O)=C(COC(N)=O)CS[C@H]12)c1ccco1 [Cefuroxime] | 196 | 371 | 99 | 121 | S | S | R | S | S | S | S | S | S | S | – | –
7 | CC1=C(C(=O)O)N2C(=O)[C@@H](NC(=O)[C@H](N)c3ccccc3)[C@H]2SC1 [Cephalexin] | 167 | 372 | 90 | 121 | – | – | – | – | – | – | – | – | – | – | – | –
8 | C[C@@H](O)[C@H]1C(=O)N2C(C(=O)O)=C(SCCN=CN)C[C@H]12 [Imipenem] | – | – | – | – | – | – | – | – | – | – | – | – | – | – | 18 | 72
9 | C[C@H]1COc2c(N3CCN(C)CC3)c(F)cc3c(=O)c(C(=O)O)cn1c23 [Levofloxacin] | – | – | – | – | – | – | – | – | – | – | – | – | – | – | 33 | 63
10 | C[C@@H](O)[C@H]1C(=O)N2C(C(=O)O)=C(S[C@@H]3CN[C@H](C(=O)N(C)C)C3)[C@H](C)[C@H]12 [Meropenem] | – | – | – | – | – | – | – | – | – | – | – | – | – | – | 20 | 77
11 | O=C1CN(/N=C/c2ccc([N+](=O)[O-])o2)C(=O)N1 [Nitrofurantoin] | 47 | 502 | 150 | 62 | – | – | – | – | – | – | – | – | – | – | – | –
12 | CCN1CCN(C(=O)N[C@@H](C(=O)N[C@@H]2C(=O)N3[C@@H]2SC(C)(C)[C@@H]3C(=O)O)c2ccccc2)C(=O)C1=O [Piperacillin] | – | – | – | – | – | – | – | – | – | – | – | – | – | – | 23 | 59
13 | NC[C@H]1O[C@H](O[C@H]2[C@H](O)[C@@H](O[C@H]3O[C@H](CO)[C@@H](O)[C@H](N)[C@H]3O)[C@H](N)C[C@@H]2N)[C@H](N)C[C@@H]1O [Tobramycin] | – | – | – | – | – | – | – | – | – | – | – | – | – | – | 15 | 79
14 | Amoxicillin ClavulA | – | – | – | – | S | – | – | S | S | S | S | S | S | – | – | –
15 | Gentamicin | 68 | 498 | 41 | 179 | – | – | – | – | – | – | – | – | – | – | 17 | 80
16 | Piperacill-Tazobactam | 58 | 506 | 41 | 179 | – | – | – | – | – | – | – | – | – | – | 10 | 76
17 | Sulfamethoxa-Trimeth | 194 | 371 | 92 | 126 | S | R | S | S | R | R | R | S | R | S | – | –
